≈ marks a conversion by molar mass, not a printed value. Read-outs that look alike come from different tables or passages of the source.
Legend:
[1] = tested on: Saccharomyces cerevisiae; assay: growth inhibition of Saccharomyces cerevisiae culture (turbidimetric); format: cell-based; details: S. cerevisiae n. 167; PYG culture medium, 6 hours at 36; average of 2-5 experiments
[2] = tested on: Candida albicans; assay: antimycotic activity, minimum inhibitory concentration (MIC) on Candida albicans, liquid and solid medium; format: cell-based; details: candida albicans n. 37, 24 hours, average of 2-5 experiments
Procedure: (b) Sabouraud fluid medium, 24 hours at
(c) Sabouraud fluid medium + agar, 24 hours at […]

[3] = tested on: Trichomonas vaginalis; assay: antiprotozoal activity, MIC on Trichomonas vaginalis; format: cell-based; details: T. vaginalis n. 6; CPLM culture medium, 72 hours; average of 2-5 experiments
[4] = tested on: rat erythrocytes; assay: hemolytic power on rat erythrocytes; format: cell-based; details: for EC (concentration that causes hemoglobin liberation of 50% of the total amount): rat erythrocytes, 2% suspension in BSA Ringer, 1 hour at 36, average of 2-5 experiments; for hemolytic activity, times less than unreacted partricins: relative to unreacted partricins
Procedure: A further important evaluation parameter was the helomytic power: rat erytrocytes were suspended at a 2% concentration in Ringer solution containing 0.2% of bovine serum albumin, fraction V (BSA) and incubated for 1 hour at 36° C. in the presence of various amounts of the amides being investigated.

[5] = water solubility and pH; format: physicochemical
[6] = background statement, in words; cited from earlier work
[7] = tested on: yeasts, such as Candida albicans; details: background statement, in words; cited from earlier work
[8] = background statement, in words; cited from earlier work; remark: listed apart in the source
[9] = Sabouraud fluid medium + agar (solid)

Molecule | IC50 [1] | MIC [2, 9] | MIC ([2]; Sabouraud fluid medium) | MIC [3] | EC (concentration that causes hemoglobin liberation of 50% of the total amount) [4] | also measured
Partricin A n-propyl amide [P.A n-propyl amide] | 1 ng/mL | 16 ng/mL | 8 ng/mL | 500 ng/mL | – | –
Partricin n-dodecyl amide [P. n-dodecyl amide] | 50 ng/mL | 800 ng/mL | 450 ng/mL | > 10000 ng/mL | > 32 µg/mL | –
2-dimethylaminoethyl amide | – | – | – | – | – | hemolytic activity, times less than unreacted partricins [4]: 25-80 times less
partricin A methyl amide [P.A methyl amide] | 0.7 ng/mL | 8 ng/mL | 5 ng/mL | 250 ng/mL | 8 µg/mL | –
Partricin 3-dimethylaminopropyl amide [P. 3-dimethyl-aminopropyl amide] | 1 ng/mL | 16 ng/mL | 10 ng/mL | 500 ng/mL | 17 µg/mL | –
Partricin A ethyl amide [P.A ethyl amide] | 1 ng/mL | 10 ng/mL | 9 ng/mL | 500 ng/mL | – | –
Partricin A 3-dimethylaminopropyl amide [P.A 3-dimethyl-aminopropyl amide] | 0.5 ng/mL | 8 ng/mL | 3 ng/mL | 500 ng/mL | 20 µg/mL | –
Partricin B methyl amide [P.B methyl amide] | 1 ng/mL | 8 ng/mL | 7 ng/mL | 250 ng/mL | – | –
Partricin B 2-dimethylaminoethyl amide [P.B 2-dimethyl-aminoethyl-amide] | 1 ng/mL | 10 ng/mL | 3 ng/mL | 500 ng/mL | – | –
3-dimethylaminopropyl amide | – | – | – | – | – | hemolytic activity, times less than unreacted partricins [4]: 25-80 times less
partricin A 2-dimethylaminoethylamide [P.A 2-dimethyl-aminoethyl amide] | 0.4 ng/mL | 8 ng/mL | 2 ng/mL | 500 ng/mL | 25 µg/mL | –
Partricin methyl amide [P. methy amide] | 1 ng/mL | 7 ng/mL | 5 ng/mL | 250 ng/mL | 7.5 µg/mL | –
methyl amide | – | – | – | – | – | hemolytic activity, times less than unreacted partricins [4]: 25-80 times less
partricin A 2-dimethylaminoethyl amide diaspartate | – | – | – | – | – | water solubility ([5]; in words): water-soluble; pH (reaction of the salt) ([5]; slightly acidic reaction): ~5
mepartricin | – | – | – | – | – | action selectivity [6]: greater action selectivity; toxicity [6]: reduced toxicity, but still exhibits marked toxic effects; antimycotic activity [7]: increased antimycotic activity; water solubility [8]: insufficient water solubility
Partricin A N'-methyl-piperazide [P.A N'-methyl-piperazide] | 0.4 ng/mL | 4 ng/mL | 1 ng/mL | 500 ng/mL | – | –
COC(=O)C1C(O)CC2(O)CC(O)CC(O)C(O)CCC(O)CC(O)CC(=O)OC(C)C(C)C(O)C(C)C=CC=CC=CC=CC=CC=CC=CC(OC3OC(C)C(O)C(N)C3O)CC1O2 (stereo not drawn) [amphotericin B methyl ester] | – | – | – | – | – | toxicity [6]: severe neurotoxic effects
Partricin A n-pentyl amide [P.A n-penthyl amide] | 3 ng/mL | 80 ng/mL | 20 ng/mL | 2000 ng/mL | – | –
CC1/C=C/C=C/C=C/C=C/C=C/C=C/C=C/C(O[C@H]2O[C@@H](C)[C@H](O)[C@@H](N)[C@H]2O)CC2OC(O)(CC(O)CC(O)CC(O)CC(O)CC(=O)CC(O)CC(=O)OC1C(C)CCC(O)CC(=O)c1ccc(N)cc1)CC(O)C2C(=O)O (stereo partly drawn) [Partricin B (P.B), reference compound] | 5 ng/mL (≈ 0.00449 µM) | 40 ng/mL | 40 ng/mL (≈ 0.0359 µM) | 250 ng/mL (≈ 0.225 µM) | – | –
Partricin A allyl amide [P.A allyl amide] | 0.8 ng/mL | 10 ng/mL | 6 ng/mL | 250 ng/mL | – | –

Reference: US5296597A, “Amide derivatives of Partricin A & Partricin B” (SPA Societa' Prodotti Antibiotici S.P.A., priority 1989, dated 1994)
